According to patent US12371428B2 (Exelixis, Inc., priority 2019, dated 2025):

What was measured:
[1] = biological target: Human MET (residues 956-1390) (Homo sapiens (Human), UniProt P08581); experiment: Human Met kinase assay, HTRF KinEase (Example D-2); type: biochemical; conditions: protocol of Example D-2; read-out: c-Met IC50
How it was run: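 MET kinase domain (956-1390), 0.1 ng/well, in buffer with 5 mM MgCl2, 1 mM DTT and 1 mM MnCl2, phosphorylated a biotinylated peptide at ATP Km for 40 min at RT; 10 concentrations, 3% DMSO final. EDTA-stopped HTRF read after 60 min; IC50 from a 4-parameter logistic fit.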

[2] = biological target: Mer (phospho-Mer, MERTK-transfected 293A cells) (Homo sapiens (Human), UniProt Q12866); experiment: Mer autophosphorylation ELISA in transient transfected 293A cells (Example H); type: cell-based; conditions: cellular activity; Mer autophosphorylation ELISA in transient transfected 293A cells
Mer (phospho-Mer, MERTK-transfected 293A cells), sequence (Q12866 21-999): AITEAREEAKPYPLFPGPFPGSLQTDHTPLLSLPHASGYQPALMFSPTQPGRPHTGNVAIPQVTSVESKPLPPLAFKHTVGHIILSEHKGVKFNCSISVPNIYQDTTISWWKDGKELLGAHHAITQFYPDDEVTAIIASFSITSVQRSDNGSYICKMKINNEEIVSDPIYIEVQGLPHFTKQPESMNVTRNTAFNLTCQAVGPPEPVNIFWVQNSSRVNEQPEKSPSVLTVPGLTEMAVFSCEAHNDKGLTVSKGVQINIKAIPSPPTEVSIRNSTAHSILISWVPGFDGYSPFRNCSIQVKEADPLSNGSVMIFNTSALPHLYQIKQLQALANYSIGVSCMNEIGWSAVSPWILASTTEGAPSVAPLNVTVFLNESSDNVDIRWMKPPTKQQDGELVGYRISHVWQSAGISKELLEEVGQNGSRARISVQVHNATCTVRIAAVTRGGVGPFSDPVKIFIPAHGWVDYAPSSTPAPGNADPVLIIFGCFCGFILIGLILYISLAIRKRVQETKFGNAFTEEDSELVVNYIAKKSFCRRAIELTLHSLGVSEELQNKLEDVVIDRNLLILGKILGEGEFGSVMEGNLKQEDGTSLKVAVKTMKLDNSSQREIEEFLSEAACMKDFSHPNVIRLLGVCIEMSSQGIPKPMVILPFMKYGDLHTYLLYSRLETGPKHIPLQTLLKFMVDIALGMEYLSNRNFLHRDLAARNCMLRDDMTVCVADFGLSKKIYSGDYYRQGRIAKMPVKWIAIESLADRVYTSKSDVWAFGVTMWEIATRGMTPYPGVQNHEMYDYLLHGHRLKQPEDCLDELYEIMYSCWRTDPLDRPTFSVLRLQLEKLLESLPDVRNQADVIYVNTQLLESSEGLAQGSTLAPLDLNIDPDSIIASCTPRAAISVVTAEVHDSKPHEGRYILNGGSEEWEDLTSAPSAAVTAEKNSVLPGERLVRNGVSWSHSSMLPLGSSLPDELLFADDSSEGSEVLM
How it was run: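 293A cells transiently transfected with human MERTK were treated 1 h in serum-free medium with an 8-point compound dilution (0.3% DMSO final). Lysates were assayed by phospho-Mer sandwich ELISA against a phospho-Mer standard; IC50 came from a 4-parameter logistic fit, normalised to DMSO (100%) and reference-inhibitor (0%) controls.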

[3] = biological target: KDR (phospho-KDR, VEGF165-stimulated HUVEC cells) (Homo sapiens (Human), UniProt P35968); experiment: KDR autophosphorylation ELISA in HUVEC cells (Example G); type: cell-based; conditions: cellular activity; KDR autophosphorylation ELISA in HUVEC cells
KDR (phospho-KDR, VEGF165-stimulated HUVEC cells), sequence (P35968 20-1356): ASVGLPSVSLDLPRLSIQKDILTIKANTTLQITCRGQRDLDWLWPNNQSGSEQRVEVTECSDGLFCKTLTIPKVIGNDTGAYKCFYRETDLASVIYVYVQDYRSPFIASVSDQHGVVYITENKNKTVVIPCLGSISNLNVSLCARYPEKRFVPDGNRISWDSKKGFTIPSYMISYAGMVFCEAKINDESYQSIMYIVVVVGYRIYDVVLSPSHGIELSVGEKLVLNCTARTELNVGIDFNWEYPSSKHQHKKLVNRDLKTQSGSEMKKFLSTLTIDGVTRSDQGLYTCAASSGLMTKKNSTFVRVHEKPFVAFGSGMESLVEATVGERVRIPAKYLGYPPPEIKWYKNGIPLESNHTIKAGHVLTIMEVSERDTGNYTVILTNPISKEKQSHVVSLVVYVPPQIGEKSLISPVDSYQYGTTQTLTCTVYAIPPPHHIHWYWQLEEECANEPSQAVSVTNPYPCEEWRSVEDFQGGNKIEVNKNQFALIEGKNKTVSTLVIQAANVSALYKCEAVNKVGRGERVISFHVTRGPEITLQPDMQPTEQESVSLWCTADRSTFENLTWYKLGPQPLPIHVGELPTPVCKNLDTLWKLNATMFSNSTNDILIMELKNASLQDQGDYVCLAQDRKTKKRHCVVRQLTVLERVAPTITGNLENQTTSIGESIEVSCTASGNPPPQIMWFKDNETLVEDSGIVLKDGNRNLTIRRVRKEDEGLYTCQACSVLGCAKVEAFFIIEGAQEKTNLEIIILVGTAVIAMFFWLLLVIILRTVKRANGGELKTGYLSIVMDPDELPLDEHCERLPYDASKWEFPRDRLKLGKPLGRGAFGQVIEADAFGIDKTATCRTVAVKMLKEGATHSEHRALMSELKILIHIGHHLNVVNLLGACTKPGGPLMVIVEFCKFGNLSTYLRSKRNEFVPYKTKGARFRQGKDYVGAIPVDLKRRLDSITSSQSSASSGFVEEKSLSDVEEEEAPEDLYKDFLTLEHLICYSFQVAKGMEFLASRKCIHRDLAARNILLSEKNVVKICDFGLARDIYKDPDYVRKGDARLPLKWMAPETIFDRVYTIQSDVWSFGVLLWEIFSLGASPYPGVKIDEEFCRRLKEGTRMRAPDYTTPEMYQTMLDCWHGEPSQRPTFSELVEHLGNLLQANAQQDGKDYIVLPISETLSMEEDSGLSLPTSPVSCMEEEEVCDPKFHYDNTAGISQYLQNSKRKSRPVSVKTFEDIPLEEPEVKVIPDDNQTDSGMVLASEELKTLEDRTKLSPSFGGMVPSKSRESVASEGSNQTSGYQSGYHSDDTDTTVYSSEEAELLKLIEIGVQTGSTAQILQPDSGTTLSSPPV
How it was run: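 HUVECs were serum-starved 24 h, given compound as an 8-point dilution series (0.3% DMSO final) for 1 h, then stimulated with 100 ng/mL VEGF165 for 5 min. Lysate phospho-KDR was quantified by sandwich ELISA against a phospho-KDR standard, and IC50s came from a 4-parameter logistic fit.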

Human MET (residues 956-1390), sequence (P08581 956-1390): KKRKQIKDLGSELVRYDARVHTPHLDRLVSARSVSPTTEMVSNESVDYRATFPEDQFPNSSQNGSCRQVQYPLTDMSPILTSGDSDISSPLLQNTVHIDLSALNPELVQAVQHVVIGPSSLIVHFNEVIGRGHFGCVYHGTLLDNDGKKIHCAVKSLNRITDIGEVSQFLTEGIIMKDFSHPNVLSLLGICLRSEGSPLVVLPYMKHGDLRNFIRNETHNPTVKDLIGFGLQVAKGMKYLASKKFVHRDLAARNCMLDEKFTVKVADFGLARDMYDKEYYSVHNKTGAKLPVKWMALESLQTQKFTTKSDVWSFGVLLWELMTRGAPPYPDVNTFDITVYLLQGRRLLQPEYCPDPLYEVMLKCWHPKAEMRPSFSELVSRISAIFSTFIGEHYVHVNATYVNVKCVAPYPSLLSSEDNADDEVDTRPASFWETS

| SMILES | IC50 [1] [nM] | IC50 [2] [nM] | IC50 [3] [nM] |
| --- | --- | --- | --- |
| COCCOc1cc2nccc(Oc3ccc(NC(=O)c4c(COC)nc(C)c(-c5ccc(F)cc5)c4O)cc3F)c2nc1OC [Compound 482, N-[3-fluoro-4-[[6-methoxy-7-(2-methoxyethoxy)-1,5-naphthyridin-4-yl]oxy]phenyl]-5-(4-fluorophenyl)-4-hydroxy-2-(methoxymethyl)-6-methylpyridine-3-carboxamide] | < 100 | < 100 | < 100 |
| COc1cc2nccc(Oc3ccc(NC(=O)c4cn(C)c(CF)c(-c5ccc(F)cc5)c4=O)cc3)c2nc1OC [Compound 560, N-[4-[(6,7-Dimethoxy-1,5-naphthyridin-4-yl)oxy]phenyl]-6-(fluoromethyl)-5-(4-fluorophenyl)-1-methyl-4-oxopyridine-3-carboxamide] | < 100 | < 100 | 100 to 300 |
| COc1cc2nccc(Oc3ccc(NC(=O)c4cn(C5CCCC5)cc(-c5ccc(F)cc5)c4=O)cc3F)c2nc1OC [Compound 46, 1-Cyclopentyl-N-[4-[(6,7-dimethoxy-1,5-naphthyridin-4-yl)oxy]-3-fluorophenyl]-5-(4-fluorophenyl)-4-oxopyridine-3-carboxamide] | – | < 100 | 100 to 300 |
| COc1cc2nccc(Oc3ccc(NC(=O)c4cc(C)nn(-c5ccc(F)cc5)c4=O)cc3F)c2nc1OC [Compound 519, N-[4-[(6,7-dimethoxy-1,5-naphthyridin-4-yl)oxy]-3-fluorophenyl]-2-(4-fluorophenyl)-6-methyl-3-oxopyridazine-4-carboxamide] | 100 to 300 | < 100 | < 100 |
| C=C(C)c1cnc2c(Oc3ccc(NC(=O)c4cnc(C)c(-c5ccc(F)cc5)c4O)cc3F)ccnc2c1 [Compound 456, 5-(4-fluorophenyl)-N-[3-fluoro-4-[(7-prop-1-en-2-yl-1,5-naphthyridin-4-yl)oxy]phenyl]-4-hydroxy-6-methylpyridine-3-carboxamide] | < 100 | < 100 | < 100 |
| CNc1nccc2c(Oc3ccc(NC(=O)c4cnc(C)n(-c5ccc(F)cc5)c4=O)cc3)ccnc12 [Compound 543, 1-(4-fluorophenyl)-2-methyl-N-[4-[[8-(methylamino)-1,7-naphthyridin-4-yl)oxy]phenyl]-6-oxopyrimidine-5-carboxamide] | 100 to 300 | < 100 | 100 to 300 |
| C=C(C)c1cnc2c(Oc3ccc(NC(=O)c4c(C)cc(C)n(-c5ccc(F)cc5)c4=O)cc3F)ccnc2c1 [Compound 457, 1-(4-fluorophenyl)-N-[3-fluoro-4-[(7-prop-1-en-2-yl-1,5-naphthyridin-4-yl)oxy]phenyl]-4,6-dimethyl-2-oxopyridine-3-carboxamide] | < 100 | < 100 | < 100 |
| COCCOc1cnc2c(Oc3ccc(NC(=O)c4c(C)nc(C)c(-c5ccc(F)cc5)c4O)cc3F)ccnc2c1 [Compound 555, N-[3-Fluoro-4-[[7-(2-methoxyethoxy)-1,5-naphthyridin-4-yl]oxy]phenyl]-5-(4-fluorophenyl)-4-hydroxy-2,6-dimethylpyridine-3-carboxamide] | < 100 | < 100 | < 100 |
| COc1cc2nccc(Oc3ccc(NC(=O)c4cncc(-c5ccc(F)cc5)c4O)cc3F)c2nc1OC [Compound 42, N-[4-[(6,7-Dimethoxy-1,5-naphthyridin-4-yl)oxy]-3-fluorophenyl]-5-(4-fluorophenyl)-4-hydroxypyridine-3-carboxamide] | – | < 100 | < 100 |
| COc1cc2nccc(Oc3ccc(NC(=O)c4cn(C5CC5)cc(-c5ccc(F)cc5)c4=O)cc3F)c2nc1OC [Compound 41, 1-Cyclopropyl-N-[4-[(6,7-dimethoxy-1,5-naphthyridin-4-yl)oxy]-3-fluorophenyl]-5-(4-fluorophenyl)-4-oxopyridine-3-carboxamide] | – | < 100 | 100 to 300 |
| CNc1ncc(C(=O)Nc2ccc(Oc3ccnc4cc(OC)c(OC)nc34)c(F)c2)c(=O)n1-c1ccc(F)cc1 [Compound 99, N-[4-[(6,7-Dimethoxy-1,5-naphthyridin-4-yl)oxy]-3-fluorophenyl]-1-(4-fluorophenyl)-2-(methylamino)-6-oxopyrimidine-5-carboxamide] | – | < 100 | < 100 |
| COc1cc2nccc(Oc3ccc(NC(=O)c4c[nH]c(=S)n(-c5ccc(F)cc5)c4=O)cc3F)c2nc1OC [Compound 104, N-[4-[(6,7-Dimethoxy-1,5-naphthyridin-4-yl)oxy]-3-fluorophenyl]-3-(4-fluorophenyl)-4-oxo-2-sulfanylidene-1H-pyrimidine-5-carboxamide] | – | < 100 | < 100 |
| COc1cc2nccc(Oc3ccc(NC(=O)c4cn(C5COC5)cc(-c5ccc(F)cc5)c4=O)cc3F)c2nc1OC [Compound 47, N-[4-[(6,7-Dimethoxy-1,5-naphthyridin-4-yl)oxy]-3-fluorophenyl]-5-(4-fluorophenyl)-1-(oxetan-3-yl)-4-oxopyridine-3-carboxamide] | – | < 100 | > 300 |
| COc1cc2nccc(Oc3ccc(NC(=O)c4cn(C(C)C)cc(-c5ccc(F)cc5)c4=O)cc3F)c2cc1OC [Compound 43, N-[4-(6,7-Dimethoxyquinolin-4-yl)oxy-3-fluorophenyl]-5-(4-fluorophenyl)-4-oxo-1-propan-2-ylpyridine-3-carboxamide] | – | < 100 | < 100 |

Further lines, results first:

| IC50 [1] [nM] | IC50 [2] [nM] | IC50 [3] [nM] | SMILES |
| --- | --- | --- | --- |
| – | < 100 | 100 to 300 | COc1cc2nccc(Oc3ccc(NC(=O)c4cn(C(C)C)c(C)c(-c5ccc(Cl)c(Cl)c5)c4=O)cc3F)c2nc1OC [Compound 25, 5-(3,4-Dichlorophenyl)-N-[4-[(6,7-dimethoxy-1,5-naphthyridin-4-yl)oxy]-3-fluorophenyl]-6-methyl-4-oxo-1-propan-2-ylpyridine-3-carboxamide] |
| – | < 100 | < 100 | COc1cc2nccc(Oc3ccc(NC(=O)c4cn(C5CCCC5)c(C)c(-c5ccc(F)cc5)c4=O)cc3F)c2nc1OC [Compound 26] |
| < 100 | < 100 | < 100 | COc1cc2nccc(Oc3ccc(NC(=O)c4c(C)n(C)cc(-c5ccc(F)cc5C)c4=O)cc3F)c2nc1OC [Compound 481, N-[4-[(6,7-dimethoxy-1,5-naphthyridin-4-yl)oxy]-3-fluorophenyl]-5-(4-fluoro-2-methylphenyl)-1,2-dimethyl-4-oxopyridine-3-carboxamide] |
| – | < 100 | < 100 | COc1cc2nccc(Oc3ccc(NC(=O)c4cn(C(C)C)c(C)c(-c5ccc(F)cc5)c4=O)cc3F)c2nc1OC [Compound 21, N-[4-[(6,7-Dimethoxy-1,5-naphthyridin-4-yl)oxy]-3-fluorophenyl]-5-(4-fluorophenyl)-6-methyl-4-oxo-1-propan-2-ylpyridine-3-carboxamide] |
| – | < 100 | < 100 | COc1cc2nccc(Oc3ccc(NC(=O)c4cn(C5CCCC5)c(C)c(-c5ccc(F)c(Cl)c5)c4=O)cc3F)c2nc1OC [Compound 27, 5-(3-Chloro-4-fluorophenyl)-1-cyclopentyl-N-[4-[(6,7-dimethoxy-1,5-naphthyridin-4-yl)oxy]-3-fluorophenyl]-6-methyl-4-oxopyridine-3-carboxamide] |
| – | < 100 | > 300 | COc1cc2nccc(Oc3ccc(NC(=O)c4cn(C(C)C)c(C)c(-c5ccc(Cl)c(Cl)c5)c4=O)cc3F)c2cc1OC [Compound 23, 5-(3,4-Dichlorophenyl)-N-[4-(6,7-dimethoxyquinolin-4-yl)oxy-3-fluorophenyl]-6-methyl-4-oxo-1-propan-2-ylpyridine-3-carboxamide] |
| – | < 100 | 100 to 300 | COc1cc2nccc(Oc3ccc(NC(=O)c4cn(C(C)C)c(C)c(-c5ccc(F)cc5)c4=O)cc3F)c2cc1OC [Compound 22, N-[4-(6,7-Dimethoxyquinolin-4-yl)oxy-3-fluorophenyl]-5-(4-fluorophenyl)-6-methyl-4-oxo-1-propan-2-ylpyridine-3-carboxamide] |
| – | < 100 | 100 to 300 | COc1cc2nccc(Oc3ccc(NC(=O)c4cn(C(C)C)c(C)c(-c5ccc(F)c(Cl)c5)c4=O)cc3F)c2nc1OC [Compound 24, 5-(3-Chloro-4-fluorophenyl)-N-[4-[(6,7-dimethoxy-1,5-naphthyridin-4-yl)oxy]-3-fluorophenyl]-6-methyl-4-oxo-1-propan-2-ylpyridine-3-carboxamide] |
| – | < 100 | 100 to 300 | COc1cc2nccc(Oc3ccc(NC(=O)c4cn(C(C)C)cc(-c5ccc(F)cc5)c4=O)cc3F)c2nc1OC [Compound 44, N-[4-[(6,7-Dimethoxy-1,5-naphthyridin-4-yl)oxy]-3-fluorophenyl]-5-(4-fluorophenyl)-4-oxo-1-propan-2-ylpyridine-3-carboxamide] |
| – | < 100 | < 100 | COc1cc2nccc(Oc3ccc(NC(=O)c4cn(C)cc(-c5ccc(F)cc5)c4=O)cc3F)c2nc1OC [Compound 45, N-[4-[(6,7-Dimethoxy-1,5-naphthyridin-4-yl)oxy]-3-fluorophenyl]-5-(4-fluorophenyl)-1-methyl-4-oxopyridine-3-carboxamide] |
